Laboratory results reported in US9360486B2, “Allergen fragments” (Biomay AG, priority 2007, dated 2016).

Tested on: Amb a 1-specific T cell lines (TCL)
Test: T cell epitope mapping of Amb a 1.3: proliferation (3H-thymidine uptake) of TCL stimulated with synthetic peptides
Assay type: cell-based, human
Conditions: for No. positive patients SI > 3 / No. positive patients SI > 5 / % (positive patients SI > 3) / % (positive patients SI > 5): TCL from 48 ragweed pollen-allergic patients, peptide 5 μg/ml; for No. positive patients SI > 3 / No. positive patients SI > 5: 3H-thymidine uptake after 48 hrs; for No. positive patients SI > 3 / % (positive patients SI > 3): stimulation index > 3; for No. positive patients SI > 5 / % (positive patients SI > 5): stimulation index > 5; for T cell activating region recognized by % of patients: classes of prevalence referring to SI>5, 48 TCL
Outline: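 Amb a 1-specific TCL from ragweed-allergic patients, raised with ragweed extract or rAmb a 1.3, stimulated 48 h with 121 overlapping 12-mer peptides plus one C-terminal 13-mer (9-residue overlap) at 5 μg/ml. Proliferation by 3H-thymidine uptake; SI against the mean cpm of the ten least stimulating peptides, epitope when SI ≥3.0.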

## SAGMIPAEPGEA (Amb a 1 fragment) [Peptide 115]
  reactivity with T cells isolated from allergic individuals: reactivity with T cells
  No. positive patients SI > 3: 18
  No. positive patients SI > 5: 17
  % (positive patients SI > 3): 37.5%
  % (positive patients SI > 5): 35.4%

## GEAAIKLTSSAG (Amb a 1 fragment) [Peptide 118]
  reactivity with T cells isolated from allergic individuals: reactivity with T cells
  No. positive patients SI > 3: 10
  No. positive patients SI > 5: 8
  % (positive patients SI > 3): 20.8%
  % (positive patients SI > 5): 16.7%

## FLAPDDQIKKNV (Amb a 1 fragment) [Peptide 97]
  reactivity with T cells isolated from allergic individuals: reactivity with T cells
  No. positive patients SI > 3: 6
  No. positive patients SI > 5: 4
  % (positive patients SI > 3): 12.5%
  % (positive patients SI > 5): 8.3%

## AWNWRSDKDLLE (Amb a 1 fragment) [Peptide 105]
  No. positive patients SI > 3: 4
  No. positive patients SI > 5: 3
  % (positive patients SI > 3): 8.3%
  % (positive patients SI > 5): 6.3%

## NGGLTLMNVKNI (Amb a 1 fragment) [Peptide 43]
  No. positive patients SI > 3: 4
  No. positive patients SI > 5: 1
  % (positive patients SI > 3): 8.3%
  % (positive patients SI > 5): 2.1%

## ALADCAQGFAKG (Amb a 1 fragment) [Peptide 15]
  No. positive patients SI > 3: 4
  No. positive patients SI > 5: 2
  % (positive patients SI > 3): 8.3%
  % (positive patients SI > 5): 4.2%

## EILPSVNETRSL (Amb a 1 fragment) [Peptide 3]
  No. positive patients SI > 3: 1
  No. positive patients SI > 5: 0
  % (positive patients SI > 3): 2.1%
  % (positive patients SI > 5): 0.0%

## KNIIIHNINIHD (Amb a 1 fragment) [Peptide 46]
  reactivity with T cells isolated from allergic individuals: reactivity with T cells
  No. positive patients SI > 3: 10
  No. positive patients SI > 5: 8
  % (positive patients SI > 3): 20.8%
  % (positive patients SI > 5): 16.7%

## TYAIGGSSAPTI (Amb a 1 fragment) [Peptide 91]
  T cell reactivity with samples from individuals suffering from ragweed pollen allergy: high T cell reactivity
  reactivity with T cells isolated from allergic individuals: reactivity with T cells
  No. positive patients SI > 3: 13
  No. positive patients SI > 5: 11
  % (positive patients SI > 3): 27.1%
  % (positive patients SI > 5): 22.9%
  T cell activating region recognized by % of patients: recognized by 22.9%

## IFVTSGSDPVLT (Amb a 1 fragment) [Peptide 110]
  reactivity with T cells isolated from allergic individuals: reactivity with T cells
  No. positive patients SI > 3: 13
  No. positive patients SI > 5: 11
  % (positive patients SI > 3): 27.1%
  % (positive patients SI > 5): 22.9%

## VAFNMFTDNVDQRMP (Amb a 1 fragment) [Peptide 80-81]
  reactivity with T cells isolated from allergic individuals: reactivity with T cells
  T cell activating region recognized by % of patients: recognized by 12.5%

## SDKTIDGRGVKVEIINGG (Amb a 1 fragment) [Peptide 38-40]
  reactivity with T cells isolated from allergic individuals: reactivity with T cells
  T cell activating region recognized by % of patients: recognized by 33.3%

## DKCWRGKADWEN (Amb a 1 fragment) [Peptide 10]
  No. positive patients SI > 3: 2
  No. positive patients SI > 5: 2
  % (positive patients SI > 3): 4.2%
  % (positive patients SI > 5): 4.2%

## AIKLTSSAGVLS (Amb a 1 fragment) [Peptide 119]
  reactivity with T cells isolated from allergic individuals: reactivity with T cells
  No. positive patients SI > 3: 16
  No. positive patients SI > 5: 10
  % (positive patients SI > 3): 33.3%
  % (positive patients SI > 5): 20.8%

## IHDVKVLPGGMI (Amb a 1 fragment) [Peptide 49]
  No. positive patients SI > 3: 3
  No. positive patients SI > 5: 2
  % (positive patients SI > 3): 6.3%
  % (positive patients SI > 5): 4.2%

## GEAAIKLTSSAGVLSCRP (Amb a 1 fragment) [Peptide 118-120]
  reactivity with T cells isolated from allergic individuals: reactivity with T cells
  T cell activating region recognized by % of patients: recognized by 20.8%

## NGAIFVTSGSDPVLTPVQ (Amb a 1 fragment) [Peptide 109-111]
  reactivity with T cells isolated from allergic individuals: reactivity with T cells
  T cell activating region recognized by % of patients: recognized by 22.9%

## VVNSDKTIDGRG (Amb a 1 fragment) [Peptide 37]
  reactivity with T cells isolated from allergic individuals: reactivity with T cells
  No. positive patients SI > 3: 14
  No. positive patients SI > 5: 9
  % (positive patients SI > 3): 29.2%
  % (positive patients SI > 5): 18.8%

## TSNLDDDVANPK (Amb a 1 fragment) [Peptide 23]
  No. positive patients SI > 3: 2
  No. positive patients SI > 5: 1
  % (positive patients SI > 3): 4.2%
  % (positive patients SI > 5): 2.1%

## IGGSSAPTILCQ (Amb a 1 fragment) [Peptide 92]
  No. positive patients SI > 3: 3
  No. positive patients SI > 5: 2
  % (positive patients SI > 3): 6.3%
  % (positive patients SI > 5): 4.2%

## PSVNETRSLQAC (Amb a 1 fragment) [Peptide 4]
  No. positive patients SI > 3: 4
  No. positive patients SI > 5: 1
  % (positive patients SI > 3): 8.3%
  % (positive patients SI > 5): 2.1%

## VLTPVQSAGMIP (Amb a 1 fragment) [Peptide 113]
  No. positive patients SI > 3: 4
  No. positive patients SI > 5: 1
  % (positive patients SI > 3): 8.3%
  % (positive patients SI > 5): 2.1%

## RQASDGDTINVA (Amb a 1 fragment) [Peptide 56]
  No. positive patients SI > 3: 1
  No. positive patients SI > 5: 1
  % (positive patients SI > 3): 2.1%
  % (positive patients SI > 5): 2.1%

## VNNNYDRWGTYA (Amb a 1 fragment) [Peptide 88]
  reactivity with T cells isolated from allergic individuals: reactivity with T cells
  No. positive patients SI > 3: 10
  No. positive patients SI > 5: 4
  % (positive patients SI > 3): 20.8%
  % (positive patients SI > 5): 8.3%

## KNVLARTGTGAA (Amb a 1 fragment) [Peptide 100]
  reactivity with T cells isolated from allergic individuals: reactivity with T cells
  No. positive patients SI > 3: 6
  No. positive patients SI > 5: 5
  % (positive patients SI > 3): 12.5%
  % (positive patients SI > 5): 10.4%
  T cell activating region recognized by % of patients: recognized by 10.4%

## QNRPLWIIFKNDMVI (Amb a 1 fragment) [Peptide 30-31]
  reactivity with T cells isolated from allergic individuals: reactivity with T cells
  T cell activating region recognized by % of patients: recognized by 20.8%

## NMFTDNVDQRMP (Amb a 1 fragment) [Peptide 81]
  reactivity with T cells isolated from allergic individuals: reactivity with T cells
  No. positive patients SI > 3: 7
  No. positive patients SI > 5: 6
  % (positive patients SI > 3): 14.6%
  % (positive patients SI > 5): 12.5%

## PDDQIKKNVLARTGT (Amb a 1 fragment) [Peptide 98-99]
  reactivity with T cells isolated from allergic individuals: reactivity with T cells
  T cell activating region recognized by % of patients: recognized by 16.7%

## LCQGNRFLAPDD (Amb a 1 fragment) [Peptide 95]
  No. positive patients SI > 3: 0
  No. positive patients SI > 5: 0
  % (positive patients SI > 3): 0.0%
  % (positive patients SI > 5): 0.0%

## EAYNIIDKCWRG (Amb a 1 fragment) [Peptide 8]
  No. positive patients SI > 3: 3
  No. positive patients SI > 5: 1
  % (positive patients SI > 3): 6.3%
  % (positive patients SI > 5): 2.1%

## KNDMVINLNQELVVN (Amb a 1 fragment) [Peptide 33-34]
  reactivity with T cells isolated from allergic individuals: reactivity with T cells
  T cell activating region recognized by % of patients: recognized by 27.1%

## KADWENNRQALA (Amb a 1 fragment) [Peptide 12]
  reactivity with T cells isolated from allergic individuals: reactivity with T cells
  No. positive patients SI > 3: 5
  No. positive patients SI > 5: 1
  % (positive patients SI > 3): 10.4%
  % (positive patients SI > 5): 2.1%

## ILLGADDTHVQD (Amb a 1 fragment) [Peptide 74]
  No. positive patients SI > 3: 3
  No. positive patients SI > 5: 1
  % (positive patients SI > 3): 6.3%
  % (positive patients SI > 5): 2.1%
